T/C data for 15 compounds are collected here from PubChem BioAssay AID200 (DTP/NCI, 2004).

Values joined by “and” are separate entries in the source; they are usually repeats but may differ in a detail not shown here. Equal values may be shown once. Toxic doses and inconclusive results are not listed. Where a SMILES comes first, the peptide text is derived from it. [ ]: non-standard residue; d: D form. The star is where a group is joined. Nle = CCCC[CH](N)C(=O)O; Cbz = O=C(OCc1ccccc1)*; Nva = CCC[CH](N)C(=O)O

This assay deals with B6C3F1 mice, B16 melanoma ip, median survival T/C. The experiment in a line: NCI In Vivo Anticancer Drug Screen. Data for tumor model B16 Melanoma (intraperitoneal) in B6C3F1 mice. The following applies: endpoint: median survival time, schedule: Q01DX009 (ip), higher = longer survival. The method in brief:
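Readout: survival or tumor size in treated mice relative to vehicle controls (T/C). Model uses transplantable tumors grown in mice.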

The mark [1] stands for this setting: dose: 0.78 mg/kg/injection, vehicle: saline with Tween-80.
[2] abbreviates: dose: 1.56 mg/kg/injection, vehicle: saline with Tween-80.
Where [3] appears, read: dose: 6.25 mg/kg/injection, vehicle: saline with Tween-80.
Setting [4] is: dose: 200.0 mg/kg/injection, vehicle: saline with Tween-80.
Setting [5] is: dose: 25.0 mg/kg/injection, vehicle: saline with Tween-80.
Setting [6] is: dose: 50.0 mg/kg/injection, vehicle: saline with Tween-80.
The mark [7] stands for this setting: dose: 100.0 mg/kg/injection, vehicle: saline with Tween-80.
Setting [8] is: dose: 200.0 mg/kg/injection, vehicle: Klucel (hydroxypropylcellulose) (HPC).
The mark [9] stands for this setting: dose: 25.0 mg/kg/injection, vehicle: Klucel (hydroxypropylcellulose) (HPC).

As for `CC[C@]1(O)C[C@H]2CN(CCc3c([nH]c4ccccc34)[C@@](C(=O)OC)(c3cc4c(cc3OC)N(C)[C@H]3[C@@](O)(C(=O)OC)[C@H](OC(C)=O)[C@]5(CC)C=CCN6CC[C@]43[C@@H]65)C2)C1`, the T/C was 194 % of control (dose: 0.12 mg/kg/injection, vehicle: saline); 161 % of control (dose: 0.12 mg/kg/injection, vehicle: water); 234 % of control (dose: 0.25 mg/kg/injection, vehicle: saline); 171 % of control and 199 % of control and 221 % of control (dose: 0.25 mg/kg/injection, vehicle: water); 215 % of control (dose: 0.5 mg/kg/injection, vehicle: saline); 176 % of control and 212 % of control and 309 % of control (dose: 0.5 mg/kg/injection, vehicle: water). Also, the T/C reads like this: (dose: 15.62 micrograms/kg/injection, vehicle: water) 159 % of control; (dose: 31.25 micrograms/kg/injection, vehicle: water) 154 % of control; (dose: 62.5 micrograms/kg/injection, vehicle: water) 180 % of control; (dose: 125.0 micrograms/kg/injection, vehicle: water) 206 % of control; (dose: 250.0 micrograms/kg/injection, vehicle: water) 206 % of control.

On to `O=[Te]=O`, for which the T/C runs as follows: (dose: 3.12 mg/kg/injection, vehicle: saline) 110 % of control; (dose: 6.25 mg/kg/injection, vehicle: saline) 109 % of control.

Consider `Cc1ccc(C(=N)c2ccccc2Cc2cccc3ccccc23)c(C)c1`, for which the T/C is 107 % of control (dose: 0.75 mg/kg/injection, vehicle: saline with Tween-80); 112 % of control (dose: 1.5 mg/kg/injection, vehicle: saline with Tween-80); 97 % of control (dose: 3.0 mg/kg/injection, vehicle: saline with Tween-80); 98 % of control (dose: 6.0 mg/kg/injection, vehicle: saline with Tween-80).

In the case of `Cc1c2ccc3ccccc3c2c[n+]2ccccc12`, the T/C by setting is: (dose: 1.25 mg/kg/injection, vehicle: Klucel (hydroxypropylcellulose) (HPC)) 104 % of control; (dose: 2.5 mg/kg/injection, vehicle: Klucel (hydroxypropylcellulose) (HPC)) 100 % of control; (dose: 5.0 mg/kg/injection, vehicle: Klucel (hydroxypropylcellulose) (HPC)) 112 % of control; (dose: 10.0 mg/kg/injection, vehicle: Klucel (hydroxypropylcellulose) (HPC)) 96 % of control; (dose: 20.0 mg/kg/injection, vehicle: Klucel (hydroxypropylcellulose) (HPC)) 100 % of control.

Turning to `Oc1cc2ccccc2c(-c2c(O)c(O)cc3ccccc23)c1O`, the T/C is 95 % of control under setting [1]; 115 % of control under setting [2]; 99 % of control (dose: 3.12 mg/kg/injection, vehicle: saline with Tween-80); 111 % of control and 93 % of control under setting [3]; 100 % of control under setting [4].

Turning to `CC(C)CC(NC(=O)OCc1ccccc1)C(=O)O` (centres undefined), the T/C is, setting by setting: (dose: 12.5 mg/kg/injection, vehicle: saline with Tween-80) 108 % of control; under setting [5], 102 % of control; under setting [6], 102 % of control and 106 % of control; under setting [7], 112 % of control and 101 % of control; under setting [4], 105 % of control.

Take `CCCCC(NC(=O)C(CCC)NC(=O)OCc1ccccc1)C(=O)O` (centres undefined) (Cbz-[Nva]-[Nle]-OH; configuration not given here): the T/C runs as follows: (dose: 100.0 mg/kg/injection, vehicle: Klucel (hydroxypropylcellulose) (HPC)) 104 % of control; under setting [8], 101 % of control.

`CCC(=O)OCC1OC(n2cnc3c(=S)nc(N)[nH]c32)C(OC(=O)CC)C1OC(=O)CC` (centres undefined): under setting [9], the T/C was 86 % of control.

Consider `[Na+]`, for which the T/C is, setting by setting: (dose: 25.0 mg/kg/injection, vehicle: water) 111 % of control; (dose: 50.0 mg/kg/injection, vehicle: water) 91 % of control; (dose: 100.0 mg/kg/injection, vehicle: water) 92 % of control; (dose: 200.0 mg/kg/injection, vehicle: water) 106 % of control; (dose: 400.0 mg/kg/injection, vehicle: water) 86 % of control.

For the compound `CN1[C@@H](CC(=O)c2ccccc2)CCC[C@H]1CC(=O)c1ccccc1`, the T/C was 104 % of control (dose: 25.0 mg/kg/injection, vehicle: saline); 112 % of control (dose: 50.0 mg/kg/injection, vehicle: saline); 98 % of control (dose: 100.0 mg/kg/injection, vehicle: saline).

`CCOC(=O)C(Cc1c[nH]c2ccccc12)NC(=O)C(Cc1ccccc1)NC(=O)C(Cc1cnc[nH]1)NC(=O)OCc1ccccc1` (stereo not drawn) (Cbz-His-Phe-Trp-OEt; configuration not given here): under setting [8], the T/C is 90 % of control.

As to `Oc1ccc(/C=N/N=C/c2ccc(O)c(O)c2)cc1O`, the T/C is 100 % of control under setting [5], 102 % of control under setting [6], 99 % of control under setting [7] and 97 % of control under setting [4].

Regarding `C/C=C/C=C\C=C/C(O)CC(OP(=O)(O)O)C(C)(O)/C=C/C1CC=CC(=O)O1` (centres undefined), the T/C is 107 % of control (dose: 0.38 mg/kg/injection, vehicle: water); 117 % of control (2×) and 123 % of control (dose: 0.75 mg/kg/injection, vehicle: water); 157 % of control and 184 % of control (dose: 6.0 mg/kg/injection, vehicle: water).

In the case of `Nc1c(/C=C/c2cc3cc(C4=NCCN4)ccc3o2)[nH]c2cc(C3=NCCN3)ccc12`, the T/C is, setting by setting: (dose: 1.5 mg/kg/injection, vehicle: Klucel (hydroxypropylcellulose) (HPC)) 108 % of control; (dose: 3.0 mg/kg/injection, vehicle: Klucel (hydroxypropylcellulose) (HPC)) 98 % of control; (dose: 6.0 mg/kg/injection, vehicle: Klucel (hydroxypropylcellulose) (HPC)) 95 % of control; (dose: 12.0 mg/kg/injection, vehicle: Klucel (hydroxypropylcellulose) (HPC)) 98 % of control; (dose: 12.5 mg/kg/injection, vehicle: Klucel (hydroxypropylcellulose) (HPC)) 90 % of control; (dose: 24.0 mg/kg/injection, vehicle: Klucel (hydroxypropylcellulose) (HPC)) 90 % of control. The T/C under setting [9] is 89 % of control.

With `O=C(Oc1ccc(-c2ccc(Br)cc2)cc1)c1ccco1`, the T/C reads like this: under setting [1], 107 % of control; under setting [2], 106 % of control; (dose: 3.13 mg/kg/injection, vehicle: saline with Tween-80) 102 % of control; under setting [3], 111 % of control and 100 % of control; under setting [5], 92 % of control; under setting [6], 97 % of control.
